Data set [1] is described as follows: Stabilization of 1-(2-aminopropyl)-indazol-6-ol by classical antioxidants. It counts as physicochemical. The conditions noted are these: aqueous solution.
The subject of another data set is 5-HT2 receptors. Conditions: cited from earlier work; for 5-HT2 receptor subtype selectivity: 5-HT2A, 5-HT2B, 5-HT2C.

With `CC(N)Cn1ncc2ccc(O)cc21` (centres unmarked) [AL-34662, 1-(2-aminopropyl)-indazol-6-ol], the “Stabilization by classical antioxidants (sodium metabisulfite, propyl gallate, ascorbic acid)” value in data set [1] was “did not stabilize”.

Take `COc1cc(C[C@@H](C)N)c(OC)cc1I` [(R)-DOI, (R)4-iodo-2,5 dimethoxy-α-methyl-benzeneethanamine]: in the data set on 5-HT2 receptors, the “5-HT2 receptor subtype selectivity” value is listed as “not selective amongst the 5-HT2 receptor subtypes”.

`COc1ccc2[nH]cc(CC(C)N)c2c1` (stereo not drawn) [5-methoxy-α-methyltryptamine]: the “5-HT2 receptor subtype selectivity” value in the data set with 5-HT2 receptors is listed as “profile similar to that of α-methyl-serotonin”.

Regarding `CC(N)Cc1c[nH]c2ccc(O)cc12` (stereo not drawn) [α-methyl-serotonin], in the data set on 5-HT2 receptors, the “5-HT2 receptor subtype selectivity” value is listed as “modest receptor subtype selectivity: 5-HT2B>5-HT2C>5-HT2A” and the 5-HT2 agonist activity result is on record as “potent 5-HT2 agonist”.
